Test results from ChEMBL document CHEMBL6078713, “Synthesis and mechanistic studies of 4-aminoquinoline-Isatin molecular hybrids and Schiff's bases as promising antimicrobial agents” (Eur J Med Chem, 2025).
In brackets after ≈: the same amount, converted by molar mass. Activity calls are given as the source filed them. No cut-off for these calls is given here.

Assays:
[1] = tested on: Salmonella typhi; test: Antibacterial activity against Salmonella typhi assessed as inhibition of bacterial growth incubated overnight by serial dilution based spectrophotometer; type: functional, Salmonella enterica subsp. enterica serovar Typhi; settings: Salmonella enterica
[2] = tested on: Bacillus subtilis; test: Synergistic antibacterial activity against Bacillus subtilis MTCC 736 assessed as fractional inhibitory concentration index incubated overnight in presence of ciprofloxacin by microdilution checkerboard assay; type: functional
[3] = tested on: Staphylococcus aureus; test: Bacteriostatic activity against Staphylococcus aureus MTCC 902 assessed as reduction in bacterial growth at 2 times MIC measured upto 24 hrs by absorbance based assay; type: functional, organism-based
[4] = tested on: Escherichia coli; test: Antibacterial activity against Escherichia coli MTCC 443 assessed as diameter of zone of inhibition at MIC incubated overnight by disk diffusion method; type: functional
[5] = tested on: Escherichia coli; test: Antibacterial activity against Escherichia coli MTCC 443 assessed as diameter of zone of inhibition at 500 ug/ml by agar disk diffusion method; type: functional; settings: read-out: DIZ
[6] = tested on: Bacillus subtilis; test: Antibacterial activity against Bacillus subtilis MTCC 736 assessed as diameter of zone of inhibition at 500 ug/ml by agar disk diffusion method; type: functional; settings: read-out: DIZ
[7] = tested on: Staphylococcus aureus; test: Synergistic antibacterial activity against Staphylococcus aureus MTCC 902 assessed as inhibition of bacterial growth incubated overnight in presence of ciprofloxacin by serial dilution based spectrophotometer; type: functional
[8] = tested on: Enterococcus faecalis; test: Bactericidal activity against Enterococcus faecalis MTCC 439 assessed as inhibition of bacterial growth incubated overnight; type: functional
[9] = tested on: Escherichia coli; test: Antibacterial activity against Escherichia coli MTCC 443 assessed as diameter of zone of inhibition at 0.5 times MIC incubated overnight by disk diffusion method; type: functional
[10] = tested on: Salmonella typhi; test: Bactericidal activity against Salmonella typhi assessed as inhibition of bacterial growth incubated overnight; type: functional, Salmonella enterica subsp. enterica serovar Typhi; settings: Salmonella enterica
[11] = tested on: Staphylococcus aureus; test: Bactericidal activity against Staphylococcus aureus MTCC 902 assessed as inhibition of bacterial growth incubated overnight; type: functional
[12] = tested on: Escherichia coli; test: Synergistic antibacterial activity against Escherichia coli MTCC 443 assessed as fractional inhibitory concentration index incubated overnight in presence of ciprofloxacin by microdilution checkerboard assay; type: functional
[13] = tested on: Staphylococcus aureus; test: Ratio of MBC for antibacterial activity against Staphylococcus aureus MTCC 902 to MIC for bactericidal activity against Staphylococcus aureus MTCC 902; type: functional
[14] = tested on: Salmonella typhi; test: Antibacterial activity against Salmonella typhi assessed as diameter of zone of inhibition at 500 ug/ml by agar disk diffusion method; type: functional, Salmonella enterica subsp. enterica serovar Typhi; settings: Salmonella enterica, read-out: DIZ
[15] = tested on: Enterococcus faecalis; test: Ratio of MBC for antibacterial activity against Enterococcus faecalis MTCC 439 to MIC for bactericidal activity against Enterococcus faecalis MTCC 439; type: functional
[16] = tested on: Pseudomonas aeruginosa; test: Antibacterial activity against Pseudomonas aeruginosa MTCC 2453 assessed as diameter of zone of inhibition at MIC incubated overnight by disk diffusion method; type: functional
[17] = tested on: Staphylococcus aureus; test: Synergistic antibacterial activity against Staphylococcus aureus MTCC 902 assessed as fractional inhibitory concentration index incubated overnight in presence of ciprofloxacin by microdilution checkerboard assay; type: functional
[18] = tested on: Escherichia coli; test: Antibacterial activity against Escherichia coli MTCC 443 assessed as diameter of zone of inhibition at 2 times MIC incubated overnight by disk diffusion method; type: functional
[19] = tested on: Salmonella typhi; test: Ratio of MBC for antibacterial activity against Salmonella typhi to MIC for bactericidal activity against Salmonella typhi; type: functional, Salmonella enterica subsp. enterica serovar Typhi
[20] = tested on: Enterococcus faecalis; test: Antibacterial activity against Enterococcus faecalis MTCC 439 assessed as diameter of zone of inhibition at 2 times MIC incubated overnight by disk diffusion method; type: functional
[21] = tested on: Escherichia coli; test: Bactericidal activity against Escherichia coli MTCC 443 assessed as inhibition of bacterial growth incubated overnight; type: functional
[22] = tested on: Bacillus subtilis; test: Synergistic antibacterial activity against Bacillus subtilis MTCC 736 assessed as inhibition of bacterial growth incubated overnight in presence of ciprofloxacin by serial dilution based spectrophotometer; type: functional
[23] = tested on: Escherichia coli; test: Antibacterial activity against Escherichia coli MTCC 443 assessed as inhibition of bacterial growth incubated overnight by serial dilution based spectrophotometer; type: functional
[24] = tested on: Salmonella typhi; test: Antibacterial activity against Salmonella typhi assessed as diameter of zone of inhibition at MIC incubated overnight by disk diffusion method; type: functional, Salmonella enterica subsp. enterica serovar Typhi
[25] = tested on: Bacillus subtilis; test: Antibacterial activity against Bacillus subtilis MTCC 736 assessed as inhibition of bacterial growth incubated overnight by serial dilution based spectrophotometer; type: functional
[26] = tested on: Enterococcus faecalis; test: Synergistic antibacterial activity against Enterococcus faecalis MTCC 439 assessed as inhibition of bacterial growth incubated overnight in presence of ciprofloxacin by serial dilution based spectrophotometer; type: functional
[27] = tested on: Enterococcus faecalis; test: Antibacterial activity against Enterococcus faecalis MTCC 439 assessed as diameter of zone of inhibition at MIC incubated overnight by disk diffusion method; type: functional
[28] = tested on: Salmonella typhi; test: Synergistic antibacterial activity against Salmonella typhi assessed as inhibition of bacterial growth incubated overnight in presence of ciprofloxacin by serial dilution based spectrophotometer; type: functional, Salmonella enterica subsp. enterica serovar Typhi; settings: Salmonella enterica
[29] = tested on: Pseudomonas aeruginosa; test: Antibacterial activity against Pseudomonas aeruginosa MTCC 2453 assessed as inhibition of bacterial growth incubated overnight by serial dilution based spectrophotometer; type: functional
[30] = tested on: Pseudomonas aeruginosa; test: Antibacterial activity against Pseudomonas aeruginosa MTCC 2453 assessed as diameter of zone of inhibition at 2 times MIC incubated overnight by disk diffusion method; type: functional
[31] = tested on: Salmonella typhi; test: Antibacterial activity against Salmonella typhi assessed as diameter of zone of inhibition at 2 times MIC incubated overnight by disk diffusion method; type: functional, Salmonella enterica subsp. enterica serovar Typhi
[32] = tested on: Bacillus subtilis; test: Bactericidal activity against Bacillus subtilis MTCC 736 assessed as inhibition of bacterial growth incubated overnight; type: functional
[33] = tested on: Pseudomonas aeruginosa; test: Bactericidal activity against Pseudomonas aeruginosa MTCC 2453 assessed as inhibition of bacterial growth incubated overnight; type: functional
[34] = tested on: Bacillus subtilis; test: Antibacterial activity against Bacillus subtilis MTCC 736 assessed as diameter of zone of inhibition at MIC incubated overnight by disk diffusion method; type: functional
[35] = tested on: Enterococcus faecalis; test: Antibacterial activity against Enterococcus faecalis MTCC 439 assessed as inhibition of bacterial growth incubated overnight by serial dilution based spectrophotometer; type: functional
[36] = tested on: Staphylococcus aureus; test: Antibacterial activity against Staphylococcus aureus MTCC 902 assessed as inhibition of bacterial growth incubated overnight by serial dilution based spectrophotometer; type: functional
[37] = tested on: Escherichia coli; test: Synergistic antibacterial activity against Escherichia coli MTCC 443 assessed as inhibition of bacterial growth incubated overnight in presence of ciprofloxacin by serial dilution based spectrophotometer; type: functional
[38] = tested on: Staphylococcus aureus; test: Antibacterial activity against Staphylococcus aureus MTCC 902 assessed as diameter of zone of inhibition at 500 ug/ml by agar disk diffusion method; type: functional; settings: read-out: DIZ
[39] = tested on: Pseudomonas aeruginosa; test: Antibacterial activity against Pseudomonas aeruginosa MTCC 2453 assessed as diameter of zone of inhibition at 500 ug/ml by agar disk diffusion method; type: functional; settings: read-out: DIZ
[40] = tested on: Pseudomonas aeruginosa; test: Synergistic antibacterial activity against Pseudomonas aeruginosa MTCC 2453 assessed as fractional inhibitory concentration index incubated overnight in presence of ciprofloxacin by microdilution checkerboard assay; type: functional
[41] = tested on: Escherichia coli; test: Bacteriostatic activity against Escherichia coli MTCC 443 assessed as reduction in bacterial growth at 2 times MIC measured upto 24 hrs by absorbance based assay; type: functional, organism-based
[42] = tested on: Enterococcus faecalis; test: Antibacterial activity against Enterococcus faecalis MTCC 439 assessed as diameter of zone of inhibition at 0.5 times MIC incubated overnight by disk diffusion method; type: functional
[43] = tested on: Escherichia coli; test: Ratio of MBC for antibacterial activity against Escherichia coli MTCC 443 to MIC for bactericidal activity against Escherichia coli MTCC 443; type: functional
[44] = tested on: Salmonella typhi; test: Synergistic antibacterial activity against Salmonella typhi assessed as fractional inhibitory concentration index incubated overnight in presence of ciprofloxacin by microdilution checkerboard assay; type: functional, Salmonella enterica subsp. enterica serovar Typhi

Structure (SMILES): Clc1ccc2c(NCC/N=C/c3ccc4ccccc4n3)ccnc2c1
- MIC [1]: 128 µg/mL (≈ 355 µM)
- fractional inhibitory concentration index (FICI) [2]: 1.25
- Activity [3]: Active
- diameter of the inhibition zone (DIZ) [4]: 11 mm
- zone of inhibition at 500 µg/mL [5]: 11 mm
- zone of inhibition at 500 µg/mL [6]: 10 mm
- MIC [7]: 256 µg/mL
- MBC [8]: 512 µg/mL (≈ 1420 µM)
- diameter of the inhibition zone (DIZ) [9]: 11 mm
- MBC [10]: 128 µg/mL (≈ 355 µM)
- MBC [11]: 512 µg/mL (≈ 1420 µM)
- fractional inhibitory concentration index (FICI) [12]: 0.281
- Ratio [13]: 1
- zone of inhibition at 500 µg/mL [14]: 11 mm
- Ratio [15]: 2
- diameter of the inhibition zone (DIZ) [16]: 6 mm
- fractional inhibitory concentration index (FICI) [17]: 1.5
- diameter of the inhibition zone (DIZ) [18]: 12 mm
- Ratio [19]: 1
- diameter of the inhibition zone (DIZ) [20]: 7 mm
- MBC [21]: 128 µg/mL (≈ 355 µM)
- MIC [22]: 32 µg/mL
- MIC [23]: 128 µg/mL (≈ 355 µM)
- diameter of the inhibition zone (DIZ) [24]: 10 mm
- MIC [25]: 128 µg/mL (≈ 355 µM)
- MIC [26]: 16 µg/mL
- diameter of the inhibition zone (DIZ) [27]: 7 mm
- MIC [28]: 4 µg/mL
- MIC [29]: 256 µg/mL (≈ 709 µM)
- diameter of the inhibition zone (DIZ) [30]: 8 mm
- diameter of the inhibition zone (DIZ) [31]: 12 mm
- MBC [32]: 512 µg/mL (≈ 1420 µM)
- MBC [33]: 512 µg/mL (≈ 1420 µM)
- diameter of the inhibition zone (DIZ) [34]: 6 mm
- MIC [35]: 256 µg/mL (≈ 709 µM)
- MIC [36]: 512 µg/mL (≈ 1420 µM)
- MIC [37]: 4 µg/mL
- zone of inhibition at 500 µg/mL [38]: 8 mm
- zone of inhibition at 500 µg/mL [39]: 10 mm
- fractional inhibitory concentration index (FICI) [40]: 1.25
- Activity [41]: Active
- diameter of the inhibition zone (DIZ) [42]: 7 mm
- Ratio [43]: 1
- fractional inhibitory concentration index (FICI) [44]: 0.093

Structure (SMILES): O=[N+]([O-])c1ccccc1/C=N/CCNc1ccnc2cc(Cl)ccc12
- MIC [1]: 64 µg/mL (≈ 180 µM)
- fractional inhibitory concentration index (FICI) [2]: 0.5
- Activity [3]: Active
- diameter of the inhibition zone (DIZ) [4]: 7 mm
- zone of inhibition at 500 µg/mL [5]: 11 mm
- zone of inhibition at 500 µg/mL [6]: 12 mm
- MIC [7]: 64 µg/mL
- MBC [8]: 256 µg/mL (≈ 722 µM)
- diameter of the inhibition zone (DIZ) [9]: 6 mm
- MBC [10]: 64 µg/mL (≈ 180 µM)
- MBC [11]: 256 µg/mL (≈ 722 µM)
- fractional inhibitory concentration index (FICI) [12]: 0.124
- Ratio [13]: 1
- zone of inhibition at 500 µg/mL [14]: 12 mm
- Ratio [15]: 2
- diameter of the inhibition zone (DIZ) [16]: 8 mm
- fractional inhibitory concentration index (FICI) [17]: 1.25
- diameter of the inhibition zone (DIZ) [18]: 9 mm
- Ratio [19]: 1
- diameter of the inhibition zone (DIZ) [20]: 12 mm
- MBC [21]: 128 µg/mL (≈ 361 µM)
- MIC [22]: 32 µg/mL
- MIC [23]: 128 µg/mL (≈ 361 µM)
- diameter of the inhibition zone (DIZ) [24]: 11 mm
- MIC [25]: 128 µg/mL (≈ 361 µM)
- MIC [26]: 2 µg/mL
- diameter of the inhibition zone (DIZ) [27]: 10 mm
- MIC [28]: 1 µg/mL
- MIC [29]: 128 µg/mL (≈ 361 µM)
- diameter of the inhibition zone (DIZ) [30]: 11 mm
- diameter of the inhibition zone (DIZ) [31]: 8 mm
- MBC [32]: 128 µg/mL (≈ 361 µM)
- MBC [33]: 128 µg/mL (≈ 361 µM)
- diameter of the inhibition zone (DIZ) [34]: 9 mm
- MIC [35]: 128 µg/mL (≈ 361 µM)
- MIC [36]: 256 µg/mL (≈ 722 µM)
- MIC [37]: 8 µg/mL
- zone of inhibition at 500 µg/mL [38]: 10 mm
- zone of inhibition at 500 µg/mL [39]: 11 mm
- fractional inhibitory concentration index (FICI) [40]: 1.5
- Activity [41]: Active
- diameter of the inhibition zone (DIZ) [42]: 9 mm
- Ratio [43]: 1
- fractional inhibitory concentration index (FICI) [44]: 0.077
